Legend:
[1] = target: T1, Prostaglandin F (FP) Receptor (Homo sapiens, UniProt P43088); assay: Ca2+ assay (FLIPR) for the GPCR prostaglandin F (FP) receptor, agonist and antagonist mode; format: cell-based
T1 construct: host or cells: Ca2+ optimized hematopoietic cell lines (rat)
Method: Biological and Pharmacological Methods 1. Ca^2+ Assays for the GPCRs Motilin Receptor, Prostaglandin F (FP) Receptor, 5-hydroxytryptamine 2B (5-HT2B) Receptor, and Purinoreceptor P2Y1
Assays were performed using on a FLIPR^TETRA fluorometric imaging plate reader (Molecular Devices) with ScreenWorks Version 2 (Molecular Devices) as device operating and data analysis software.
Dose dependent agonist and antagonist activities were determined. Percentage activation and percentage inhibition values were determined.
Percentage activation was determined upon initial addition of the sample compounds followed by 10 minutes incubation at 25° C. Following compound incubation, reference agonists were added at EC80 to determine percentage inhibition.
Reference agonists were purchased from reputable commercial vendors and prepared according to each ligand's specifications. All handling of ligands were done to ensure proper control throughout the experiments.
Example compounds were weighed on a Microbalance (Mettler MX5) and dissolved in 100% DMSO to a final concentration of 2.5 mM and subsequently diluted into the assay buffer.
The Assay buffer was a supplemented HBSS (Hank's Balanced Salt Solution). HBSS was supplemented with 20 mM HEPES (4-(2-hydroxyethyl)-piperazin-1-ethansulfonic acid) and 2.5 mM Probenecid (Sigma P8761).
GPCR assays were performed using Ca^2+ optimized hematopoietic cell lines (rat) with cultures never exceeding 90% confluency. Cells were harvested and seeded (from cultures at less than 90% confluency) at 50000 cells/well for a 96-well plate (12500 cells/well for 384). After seeding, the assay plates were incubated for forty-five (45) minutes at room temperature. After room temperature incubation, the assay plates were incubated at 37° C. 5% CO2 for 24 hours prior to assaying.
All GPCR assays were performed using Fluo-8 Ca^2+ dye. Ca^2+ dye was prepared at 1× dye concentration in GPCR assay buffer. After 24 hours of incubation, cells were washed with GPCR assay buffer, and then Ca^2+-dye (100 μL/well) was added.
The plates were incubated for 90 minutes at 30° C. 5% CO2 prior to FLIPR assay.
Compound plates were prepared to add 50 μL/well during the agonist assay mode. During the FLIPR assay, 50 μL/well from the compound plate was diluted 3-fold into the existing 100 μL/well from the dye loading step. Therefore all compounds were prepared as 3× the final concentration desired in the assay.
After completion of the first single addition assay run, assay plate was removed from the FLIPR Tetra and placed at 25° C. for seven (7) minutes before antagonist assay.
Using the EC80 values determined during the agonist assay, all pre-incubated sample compound and reference antagonist (if applicable) wells were stimulated at the EC80 of the reference agonist. As reference ligands for the first three assays their obvious natural ligands motilin, prostaglandin F2α, and serotonin (5-HT, 5-Hydroxytryptamine) were used; and for the P2Y1 assay 2MeSATP (2-methyl-thio-adeno-sine 5′-triphosphate, i.e. (2R,3S,4R)-5-(6-amino-2-methylsulfanyl-purin-9-yl)-3,4-dihydroxy-tetrahydrofuran-2-yl]methyl (hydroxy-phosphonooxy-phosphoryl)hydrogen phosphate) was applied.
After the addition of the reference agonist fluorescence was monitored for 180 sec using FLIPR Tetra.
Data Analysis and Results:
From the FLIPR data, with negative control correction enabled, the maximum statistic for each well was exported and percentage activation relative to Emax control was calculated.

[2] = in vitro; format: in vitro ADME, human; conditions: human, plasma, 10 µM; for Plasma Stability 240 min hum [% remain.]: 4 h
Method: Example compounds were dissolved in DMSO/H2O 90:10 to a final concentration of 10 mM for plasma stability determination and metabolic stability determination.
Human plasma (3-5 donors, Blutspendedienst SRK, Basel) and CD-1 mouse plasma (mixed gender pool >50 animals, Innovative Research, CA, USA) are both sodium citrate stabilized. The assay is performed in triplicates at 10 μM compound concentration and 37° C. Samples are taken at 0, 15, 60, and 240 minutes and stopped by precipitation with 2 volumes of acetonitrile. The supernatant is collected, evaporated and reconstituted in a 5% acetonitrile solution to be analyzed by HPLC/MS/MS. The resulting peak area counts are expressed in percent of the 0 value and used to determine the endpoint stability in % and the half life in minutes. In order to monitor assay integrity the degradation of propantheline is assayed with every experimental set.

[3] = in vitro; format: in vitro ADME, mouse; conditions: both, CD-1, mouse, plasma, 10 µM; for Plasma Stability 240 min mouse [% remain.]: 4 h
[4] = Metabolic stability assay, human microsomes; format: in vitro ADME; conditions: human, microsomes; for Metabolic Stability 60 min hum [% remain.]: 1 h
Method: (§1) 4. Plasma and Metabolic Stability Assays
(§2) The assays were conducted according to literature precedents (F. P. Guengerich, Analysis and Characterization of Enzymes; in: Principles and Methods of Toxicology; A. W. Hayes (Ed.) Raven Press: New York, 1989, 777-813; R. Singh et al., In vitro metabolism of a potent HIV-protease inhibitor (141W94) using rat, monkey and human liver S9, Rapid Commun. Mass Spectrom. 1996, 10, 1019-1026).
(§3) Metabolic Stability Assay
(§4) Microsomes from a human 50 donor mixed gender pool and 1:1 mixtures of microsomes from CD-1 mouse single-gender pools are purchased from Celsis (Belgium). The enzymatic reaction is performed in a buffer containing an NADPH regeneration system and microsomes with the following end concentrations: 100 mM potassium phosphate buffer (all from Sigma), 1 mg/mL glucose-6-phosphate, 1 mg/mL β-nicotinamide adenine dinucleotide phosphate (NADP), 0.65 mg/mL magnesium chloride, 0.8 units/mL of glucose-6-phosphate dehydrogenase (prediluted with 5 mM citrate buffer), 10 μM compound and 1 mg/ml microsomal protein. Compounds are incubated at 37° C. in duplicates and samples are taken after 0, 20 and 60 minutes. After acetonitrile precipitation (2 volumes) and HPLC/MS/MS analysis metabolic turnover is expressed in % of the initial 0 minutes value and half life T½ (min) is calculated. Verapamil for human and propranolol for mouse are used as reference and are assayed with every experimental set.

[5] = Metabolic stability assay, CD-1 mouse microsomes; format: in vitro ADME; conditions: both, CD-1, mouse, microsomes, 10 µM; for Metabolic Stability 60 min mouse [% remain.]: 1 h
Method: as §1, §2, §3, §4
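Throughout, for Plasma Stability 240 min mouse [% remain.]: sodium citrate stabilized mouse plasma, parent compound quantified by HPLC/MS/MS relative to its peak area at time zero, run in triplicate.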
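Throughout, for Plasma Stability T½ [min] mouse: sodium citrate stabilized mouse plasma, parent compound quantified by HPLC/MS/MS relative to its peak area at time zero, run in triplicate.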

T1 sequence (P43088 whole entry): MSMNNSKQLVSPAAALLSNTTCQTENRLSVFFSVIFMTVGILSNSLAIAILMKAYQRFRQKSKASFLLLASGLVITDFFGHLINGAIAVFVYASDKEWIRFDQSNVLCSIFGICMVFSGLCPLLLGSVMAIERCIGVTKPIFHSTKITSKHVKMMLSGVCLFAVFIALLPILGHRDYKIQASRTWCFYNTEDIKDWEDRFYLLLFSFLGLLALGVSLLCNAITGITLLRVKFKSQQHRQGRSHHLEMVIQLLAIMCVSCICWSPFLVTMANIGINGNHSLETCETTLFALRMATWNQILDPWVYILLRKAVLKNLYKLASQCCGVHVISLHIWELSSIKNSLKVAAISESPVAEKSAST

Compound	IC50 [1] [nM]	inhibition at 10 µM [1] [%]	also measured
CN1CCC[C@H](NC(=O)Nc2cccc(N(C)C)c2)C(=O)N2C[C@@H](NC(=O)Cc3ccc4ccccc4c3)C[C@H]2COc2cccc(c2)C1=O [Ex. 507, N-[(4S,6S,10S)-10-({[3-(dimethylamino)anilino]carbonyl}amino)-14-methyl-9,15-dioxo-2-oxa-8,14-diazatricyclo[14.3.1.0^4,8]icosa-1(20),16,18-trien-6-yl]-2-(2-naphthyl)acetamide]	1100	51	–
CN1CCC[C@H](NC(=O)CCCCCc2ccccc2)C(=O)N2C[C@@H](NC(=O)Cc3ccc4ccccc4c3)C[C@H]2COc2cccc(c2)C1=O [Ex. 516, N-[(4S,6S,10S)-14-methyl-6-([2-(2-naphthyl)acetyl]amino}-9,15-dioxo-2-oxa-8,14-diazatricyclo[14.3.1.0^4,8]icosa-1(20),16,18-trien-10-yl]-6-phenylhexanamide]	590	97	–
Cc1cccc(NC(=O)N[C@H]2CCCN(C)C(=O)c3cccc(c3)OC[C@@H]3C[C@H](NC(=O)Cc4ccc5ccccc5c4)CN3C2=O)c1 [Ex. 506, N-[(4S,6S,10S)-14-methyl-9,15-dioxo-10-[(3-toluidinocarbonyl)amino]-2-oxa-8,14-diazatricyclo[14.3.1.0^4,8]icosa-1(20),16,18-trien-6-yl]-2-(2-naphthyl)acetamide]	2200	55	–
CN(C)c1cccc(NC(=O)N[C@H]2C[C@H]3COc4cccc(c4)C(=O)NCCC[C@H](NC(=O)Cc4ccc5ccccc5c4)C(=O)N3C2)c1 [Ex. 386, N-[(4S,6S,10S)-6-({[3-(dimethylamino)anilino]carbonyl}amino)-9,15-dioxo-2-oxa-8,14-diazatricyclo[14.3.1.0^4,8]icosa-1(20),16,18-trien-10-yl]-2-(2-naphthyl)acetamide]	2700	85	–
CN1CCC[C@H](NC(=O)CCCCOc2ccccc2)C(=O)N2C[C@@H](NC(=O)Cc3ccc4ccccc4c3)C[C@H]2COc2cccc(c2)C1=O [Ex. 517, N-[(4S,6S,10S)-14-methyl-6-{[2-(2-naphthyl)acetyl]amino}-9,15-dioxo-2-oxa-8,14-diazatricyclo[14.3.1.0^4,8]icosa-1(20),16,18-trien-10-yl]-5-phenoxypentanamide]	650	98	–
COc1cccc(NC(=O)N[C@H]2C[C@H]3COc4cccc(c4)C(=O)N(C)CCC[C@H](NC(=O)Cc4ccc5ccccc5c4)C(=O)N3C2)c1 [Ex. 513, N-[(4S,6S,10S)-6-{[(3-methoxyanilino)carbonyl]amino}-14-methyl-9,15-dioxo-2-oxa-8,14-diazatricyclo[14.3.1.0^4,8]icosa-1(20),16,18-trien-10-yl]-2-(2-naphthyl)acetamide]	650	95	–
CN1CCC[C@H](NC(=O)Cc2ccc3ccccc3c2)C(=O)N2C[C@@H](NC(=O)Oc3ccccc3)C[C@H]2COc2cccc(c2)C1=O [Ex. 539, phenyl N-[(4S,6S,10S)-14-methyl-10-{[2-(2-naphthyl)acetyl]amino}-9,15-dioxo-2-oxa-8,14-diazatricyclo[14.3.1.0^4,8]icosa-1(20),16,18-trien-6-yl]carbamate]	–	59	–
CN(C)CCNC(=O)[C@H]1CCC(=O)N(C)CC(=O)N2CCN(C(=O)Cc3ccc4ccccc4c3)C[C@@H]2COc2ccc(F)cc2C(=O)N1C [Ex. 138, (12R,20aR)-N-[2-(dimethylamino)ethyl]-16-fluoro-8,13-dimethyl-2-[2-(2-naphthyl)acetyl]-6,9,14-trioxo-1,2,3,4,7,8,9,10,11,12,13,14,20,20a-tetradecahydro-6H-pyrazino[2,1-c][1,4,7,12]benzoxatriazacyclopentadecine-12-carboxamide]	–	–	Plasma Stability T½ [min] hum [2]: > 240 min; Plasma Stability 240 min hum [% remain.] [2]: 89 % remain.; Plasma Stability T½ [min] mouse [3]: > 240 min; Plasma Stability 240 min mouse [% remain.] [3]: 78 % remain.; Metabolic Stability T½ [min] hum ([4]; both, 10 µM): > 60 min; Metabolic Stability 60 min hum [% remain.] ([4]; both, 10 µM): 62 % remain.; Metabolic Stability T½ [min] mouse [5]: > 60 min; Metabolic Stability 60 min mouse [% remain.] [5]: 99 % remain.
CN1CC(=O)N2C[C@H](NC(=O)CCc3ccncc3)C[C@H]2COc2ccc(cc2)C(=O)N(C)[C@H](C(=O)NCc2ccc3ccccc3c2)CCC1=O [Ex. 260, (4S,6R,15S)-11,16-dimethyl-N-(2-naphthylmethyl)-9,12,17-trioxo-6-{[3-(4-pyridinyl)propanoyl]amino}-2-oxa-8,11,16-triazatricyclo[16.2.2.0^4,8]docosa-1(20),18,21-triene-15-carboxamide]	–	–	Plasma Stability T½ [min] hum [2]: > 240 min; Plasma Stability 240 min hum [% remain.] [2]: 100 % remain.; Plasma Stability T½ [min] mouse [3]: > 240 min; Plasma Stability 240 min mouse [% remain.] [3]: 100 % remain.; half-life at 10 µM ([4]; both sexes): 37 min; Metabolic Stability 60 min hum [% remain.] ([4]; both, 10 µM): 19 % remain.; Metabolic Stability T½ [min] mouse [5]: > 60 min; Metabolic Stability 60 min mouse [% remain.] [5]: 69 % remain.

More lines, main results first:

IC50 [1] [nM]	inhibition at 10 µM [1] [%]	Compound	also measured
–	74	CCCCCCCCCC(=O)N[C@H]1C[C@H]2COc3cccc(c3)C(=O)N(C)CCC[C@H](NC(=O)Cc3ccc4ccccc4c3)C(=O)N2C1 [Ex. 542, N-[(4S,6S,10S)-14-methyl-10-{[2-(2-naphthyl)acetyl]amino}-9,15-dioxo-2-oxa-8,14-diazatricyclo[14.3.1.0^4,8]icosa-1(20),16,18-trien-6-yl]decanamide]	–
–	82	CCCCCCCCCC(=O)N[C@H]1C[C@H]2COc3cccc(c3)C(=O)N(C)CCC[C@H](NC(=O)Cc3cccc4ccccc34)C(=O)N2C1 [Ex. 543, N-[(4S,6S,10S)-14-methyl-10-{[2-(1-naphthyl)acetyl]amino}-9,15-dioxo-2-oxa-8,14-diazatricyclo[14.3.1.0^4,8]icosa-1(20),16,18-trien-6-yl]decanamide]	–
–	80	CN1CCC[C@H](NC(=O)Cc2cccc3ccccc23)C(=O)N2C[C@@H](NC(=O)Cc3ccc(-c4ccccc4)cc3)C[C@H]2COc2cccc(c2)C1=O [Ex. 545, 2-[1,1′-biphenyl]-4-yl-N-[(4S,6S,10S)-14-methyl-10-{[2-(1-naphthyl)acetyl]amino}-9,15-dioxo-2-oxa-8,14-diazatricyclo[14.3.1.0^4,8]icosa-1(20),16,18-trien-6-yl]acetamide]	–
–	73	CCCCCCCCCC(=O)N[C@H]1CCCN(C)C(=O)c2cccc(c2)OC[C@@H]2C[C@H](NC(=O)CC(c3ccccc3)c3ccccc3)CN2C1=O [Ex. 550, N-[(4S,6S,10S)-6-[(3,3-diphenylpropanoyl)amino]-14-methyl-9,15-dioxo-2-oxa-8,14-diazatricyclo[14.3.1.0^4,8]icosa-1(20),16,18-trien-10-yl]decanamide]	–

From patent US9512139B2, “Conformationally constrained, fully synthetic macrocyclic compounds” (POLYPHOR AG, priority 2009, dated 2016)
